{
  "source": "ChEMBL document CHEMBL1146342",
  "about": "“Respiratory syncytial virus fusion inhibitors. Part 4: optimization for oral bioavailability” (Bioorg Med Chem Lett, 2007)",
  "data": [
    {"experiment": "in vitro", "conditions": "human, Caco-2, permeability", "units": {"Papp": "×10⁻⁶ cm/s"}, "values": [
      {"smiles": "CC(C)n1c(=O)n(Cc2nc3ccccc3n2CCCC#N)c2cnccc21", "Papp": 16.9},
      {"smiles": "CS(=O)(=O)CCCn1c(Cn2c(=O)n(CC(F)(F)F)c3ccncc32)nc2ccccc21", "Papp": 3.6},
      {"smiles": "N#CCCCn1c(Cn2c(=O)n(CC(F)(F)F)c3ccncc32)nc2ccccc21", "Papp": 19.7},
      {"smiles": "O=c1n(Cc2nc3ccccc3n2CCCCF)c2cnccc2n1CC(F)(F)F", "Papp": 24.5},
      {"smiles": "CC(C)(C)n1c(=O)n(Cc2nc3ccccc3n2CCCC#N)c2cnccc21", "Papp": 21.4}
    ]},
    {"experiment": "physchem", "conditions": "octanol/water, pH 6.5", "values": [
      {"smiles": "N#CCCCn1c(Cn2c(=O)n(C3CC3)c3ccncc32)nc2ccccc21", "logD": 2.1}
    ]},
    {"experiment": "in vivo", "conditions": "rat, plasma, po, 5 mg/kg", "units": {"AUC": "ng·h/mL"}, "values": [
      {"smiles": "CS(=O)(=O)CCCn1c(Cn2c(=O)n(CC(F)(F)F)c3ccncc32)nc2ccccc21", "AUC": 40},
      {"smiles": "N#CCCCn1c(Cn2c(=O)n(C3CC3)c3ccncc32)nc2ccccc21", "AUC": 973},
      {"smiles": "CCS(=O)(=O)CCCn1c(Cn2c(=O)n(CC(F)(F)F)c3ccncc32)nc2ccccc21", "AUC": 133}
    ]},
    {"experiment": "in vivo", "conditions": "cynomolgus monkey, plasma, po, 0.5 mg/kg", "units": {"AUC": "ng·h/mL"}, "values": [
      {"smiles": "CS(=O)(=O)CCCn1c(Cn2c(=O)n(CC(F)(F)F)c3ccncc32)nc2ccccc21", "AUC": 185},
      {"smiles": "N#CCCCn1c(Cn2c(=O)n(C3CC3)c3ccncc32)nc2ccccc21", "AUC": 270},
      {"smiles": "CCS(=O)(=O)CCCn1c(Cn2c(=O)n(CC(F)(F)F)c3ccncc32)nc2ccccc21", "AUC": 118}
    ]},
    {"experiment": "in vivo", "conditions": "mouse, plasma, po, 10 mg/kg", "units": {"AUC": "ng·h/mL"}, "values": [
      {"smiles": "CS(=O)(=O)CCCn1c(Cn2c(=O)n(CC(F)(F)F)c3ccncc32)nc2ccccc21", "AUC": 1430},
      {"smiles": "N#CCCCn1c(Cn2c(=O)n(C3CC3)c3ccncc32)nc2ccccc21", "AUC": 600},
      {"smiles": "CCS(=O)(=O)CCCn1c(Cn2c(=O)n(CC(F)(F)F)c3ccncc32)nc2ccccc21", "AUC": 2000}
    ]},
    {"experiment": "in vivo", "conditions": "dog, plasma, po, 0.5 mg/kg", "units": {"AUC": "ng·h/mL"}, "values": [
      {"smiles": "CS(=O)(=O)CCCn1c(Cn2c(=O)n(CC(F)(F)F)c3ccncc32)nc2ccccc21", "AUC": 307},
      {"smiles": "N#CCCCn1c(Cn2c(=O)n(C3CC3)c3ccncc32)nc2ccccc21", "AUC": 755},
      {"smiles": "CCS(=O)(=O)CCCn1c(Cn2c(=O)n(CC(F)(F)F)c3ccncc32)nc2ccccc21", "AUC": 438}
    ]}
  ]
}
